Measurements from PMC12491243, “Rational design of indoleamine 2,3-dioxygenase 1 (IDO1) inhibitors featuring 1,2,3-triazole derivatives with enhanced anti-inflammatory and analgesic efficacy” (Frontiers in Pharmacology, 2025).
Where two headings read alike, the source gives them in different places. Values belong to the molecule of their own block, whether it stands above or below them.

Columns and labels:
IDO1 [1] = biological target: T1, IDO1 (Homo sapiens, UniProt P14902); assay: HeLa cell-based IDO1 inhibition assay; settings: HeLa cells, 100 ng/mL human IFN-γ, 18 h, kynurenine absorbance at 480 nm
T1 construct: endogenous in cells; host or cells: HeLa cells stimulated with 100 ng/mL human IFN-γ
Protocol: To evaluate the IDO1 inhibitory activity of the newly synthesized derivatives, HeLa cells with high IDO1 expression were used as the experimental model. […] To perform the HeLa cell-based IDO1 inhibition assay, HeLa cells were seeded at a density of 50,000 cells per well in a 96-well microplate containing 100 μL of DMEM supplemented with 10% fetal bovine serum and 1% penicillin-streptomycin. The cells were incubated overnight at 37 °C in a humidified atmosphere with 5% CO2. The following day, 100 μL of growth medium containing diluted inhibitors and 100 ng/mL human IFN-γ was added to each well. The cells were then incubated at 37 °C in a CO2 incubator for 18 h. […] The plate was incubated at 50 °C for 30 min and then centrifuged at 2,500 rpm for 10 min to remove any sediment. Next, 100 μL of the supernatant was transferred to a separate 96-well plate and mixed with 100 μL of 2% (w/v) 4-(dimethylamino)benzaldehyde in acetic acid. After a 10-min incubation at room temperature, the absorbance of the resulting yellow color, indicative of kynurenine, was measured at 480 nm using a microplate reader.

[2] = 2019, cited from earlier work
IDO1 [3] = settings: cited from earlier work
kynurenine production = test system: kynurenine production; parameters: method as in Wang et al., 2019; settings: treated cells, low concentrations; ref Wang et al., 2019; cited from earlier work
dopamine D2 receptor = test system: dopamine D2 receptor; parameters: method as in earlier work; settings: ref Crosignani et al., 2017; González-Gutiérrez et al., 2025; Mendez-Rojas et al., 2018; cited from earlier work
5-HT reuptake = test system: 5-HT reuptake; parameters: method as in earlier work; settings: ref Crosignani et al., 2017; González-Gutiérrez et al., 2025; Mendez-Rojas et al., 2018; cited from earlier work
[4] = test system: Lewis lung carcinoma (LL2); parameters: method as in Pan et al., 2020; settings: ref Pan et al., 2020, cited from earlier work
[5] = test system: hepatocellular carcinoma (Hepa1-6); parameters: method as in Pan et al., 2020; settings: hepatocellular carcinoma (Hepa1-6) model; ref Pan et al., 2020; cited from earlier work
TDO = test system: TDO; parameters: method as in Rohrig et al., 2012; Rohrig et al., 2019; settings: ref Rohrig et al., 2012, 2019; cited from earlier work
human IDO1 = test system: human IDO1; parameters: method as in Rohrig et al., 2012; Rohrig et al., 2019; settings: ref Rohrig et al., 2012, 2019, read-out: IC50 in cellular assays, human IDO1; cited from earlier work
mouse IDO1 = test system: mouse IDO1; parameters: method as in Rohrig et al., 2012; Rohrig et al., 2019; settings: ref Rohrig et al., 2012, 2019, read-out: IC50 in cellular assays, mouse IDO1; cited from earlier work
IDO1 [6] = settings: read-out: IC50 in enzymatic assays, cited from earlier work
IDO1 [7] = test system: IDO1; parameters: method as in Alexandre et al., 2018; settings: ref Alexandre et al., 2018; read-out: IC50 in cellular assays; cited from earlier work
IDO1 in MDA-MB-231 cells = test system: IDO1 in MDA-MB-231 cells; parameters: method as in Panda et al., 2019; settings: ref Panda et al., 2019; cited from earlier work

T1 sequence (P14902 whole entry): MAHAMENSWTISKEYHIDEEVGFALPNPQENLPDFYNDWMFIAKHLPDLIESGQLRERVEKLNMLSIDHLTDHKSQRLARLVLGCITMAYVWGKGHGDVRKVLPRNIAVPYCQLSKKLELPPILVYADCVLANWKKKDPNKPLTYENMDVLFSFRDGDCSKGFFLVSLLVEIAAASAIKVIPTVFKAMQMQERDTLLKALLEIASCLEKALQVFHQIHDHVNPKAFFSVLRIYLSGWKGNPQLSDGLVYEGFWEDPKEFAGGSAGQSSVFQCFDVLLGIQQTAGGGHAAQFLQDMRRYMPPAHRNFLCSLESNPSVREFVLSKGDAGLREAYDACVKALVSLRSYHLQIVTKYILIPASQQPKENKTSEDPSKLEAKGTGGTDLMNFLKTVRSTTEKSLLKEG

IC50 (IDO1 [1]): 9.98 µM
SMILES: O=C1COc2ccc(NC(=O)c3cccc(-c4cn(Cc5cc(Cl)ccc5F)nn4)c3)cc2N1 [Compound 14h]

SMILES: COc1cccc2c1C(=O)C1=C(C[C@H](Cn3cc(-c4ccccc4)nn3)O[C@@H]1C)C2=O [Compound 5]
cytotoxicity ([2]; ref Wang et al.): minimal cytotoxicity | IC50 (IDO1 [3]; ref Wang et al., 2019, read-out: potency against IDO1, IC50): 6 µM | reduction of kynurenine production (kynurenine production): over 60%

IC50 (IDO1 [1]): > 30 µM
SMILES: Cc1cc(C)cc(Cn2cc(-c3cccc(C(=O)Nc4ccc5c(c4)NC(=O)CO5)c3)nn2)c1 [Compound 14b]

IC50 (IDO1 [1]): > 30 µM
SMILES: O=C1COc2ccc(NC(=O)c3cccc(-c4cn(Cc5cc(F)c(F)c(F)c5)nn4)c3)cc2N1 [Compound 14c]

IC50 (IDO1 [1]): > 30 µM
SMILES: N#Cc1ccc(F)cc1Cn1cc(-c2cccc(C(=O)Nc3ccc4c(c3)NC(=O)CO4)c2)nn1 [Compound 14d]

SMILES: CC(CCN1CCN(c2cccc3c2OCC(=O)N3)CC1)c1c[nH]c2ccc(F)cc12 (stereo not drawn) [Compound 11]
dopamine D2 receptor inhibition (dopamine D2 receptor): potent | activity in inhibiting 5-HT reuptake (5-HT reuptake): high activity

SMILES: O=C1c2cc(F)ccc2C(=O)c2c1nnn2-c1ccc(F)c(Cl)c1 [Compound 2]
toxicity in vivo models ([4]; LL2 and Hepa1-6 in vivo models): minimal toxicity | anti-tumor activity in vivo ([4]; Lewis lung carcinoma (LL2) model): significant anti-tumor activity | IC50 (IDO1 [3]; ref Pan et al., 2020, read-out: IDO1 inhibition IC50): 0.005 µM | anti-tumor activity in vivo [5]: significant anti-tumor activity

SMILES: Oc1ccc(Cl)cc1-c1c[nH]nn1 [Compound 3]
cytotoxicity ([2]; cellular assays, ref Rohrig et al., 2012, Rohrig et al.): minimal cytotoxicity | activity against TDO (TDO): no activity | IC50 (human IDO1): 0.08 µM | IC50 (mouse IDO1): 0.002 µM | IC50 (IDO1 [6]; ref Rohrig et al., 2012, Rohrig et al., 2019): 0.33 µM

SMILES: Clc1ccc(Nc2c[nH]nn2)cc1 [Compound 4]
IC50 (IDO1 [7]): 0.023 µM | IC50 (IDO1 [6]; ref Alexandre et al., 2018): 11.3 µM

IC50 (IDO1 [1]): 10.1 µM
SMILES: O=C1COc2ccc(NC(=O)c3cccc(-c4cn(Cc5cccc(Cl)c5)nn4)c3)cc2N1 [Compound 14g]

IC50 (IDO1 [1]): 8.02 µM
SMILES: O=C1COc2ccc(NC(=O)c3cccc(-c4cn(Cc5ccc(F)c(Cl)c5)nn4)c3)cc2N1 [Compound 14f]

IC50 (IDO1 [1]): 11.2 µM
SMILES: O=C1COc2ccc(NC(=O)c3cccc(-c4cn(Cc5ccc(Br)cc5)nn4)c3)cc2N1 [Compound 14a]

IC50 (IDO1 [1]): > 30 µM
SMILES: O=C1COc2ccc(NC(=O)c3cccc(-c4cn(Cc5ccc(F)cc5)nn4)c3)cc2N1 [Compound 14i]

IC50 (IDO1 [1]): > 30 µM
SMILES: O=C1COc2ccc(NC(=O)c3cccc(-c4cn(Cc5ccccc5F)nn4)c3)cc2N1 [Compound 14j]

SMILES: NS(=O)(=O)NCCNC(=O)c1n[nH]nc1-c1ccc(F)c(F)c1 [Compound 6]
cytotoxicity ([2]; ref Panda et al.): negligible cytotoxicity | IDO1 inhibition in MDA-MB-231 cells (IDO1 in MDA-MB-231 cells): strong IDO1 inhibition
